Assay results taken from patent US11529295B2, “Oral care composition” (Church & Dwight Co., Inc., priority 2019, dated 2022).

Assay: Fluoride Uptake Study, FDA monograph evaluation (FDA Method #40)
Design: species or system bovine
Conditions: comparison between formulas, Tables 2 and 3
Procedure: Formulas 1 and 2, according to Example 1 above, are assessed by Fluoride Uptake Study, FDA monograph evaluation (FDA Method #40). A Control Formula, Placebo Formula, and USP Toothpaste Standard Formula are also assessed for comparison.
Sound, upper, central, bovine incisors were selected and cleaned of all adhering soft tissue. A core of enamel 3 mm in diameter was prepared from each tooth by cutting perpendicular to the labial surface with a hollow-core diamond drill bit. This was performed under water to prevent overheating of the specimens. Each specimen was embedded in the end of a plexiglass rod (114″ diameter×2″ long) using methylmethacrylate. […]
Each enamel specimen was then etched by immersion into 0.5 ml of 1M HC104 for 15 seconds. […] A sample of each solution was then buffered with TISAB to a pH of 5.2 (0.25 ml sample, 0.5 ml TISAB and 0.25 ml IN NaOH) and the fluoride content determined by comparison to a similarly prepared standard curve (1 ml std and 1 ml TISAB). For use in depth of etch calculation, the Ca content of the etch solution was determined by taking 50μl and analyzing for Ca by atomic absorption (0.05 ml qs to 5 ml). […]
The treatments were performed using supernatants of the dentifrice slurries. […] One layer of enamel was then removed from each specimen and analyzed for fluoride and calcium as outlined above (i.e., 15 second etch). […]

For `O.O.O.O=C([O-])CC(O)(CC(=O)[O-])C(=O)[O-].O=C([O-])CC(O)(CC(=O)[O-])C(=O)[O-].[Zn+2].[Zn+2].[Zn+2]` [zinc citrate trihydrate], the “enamel fluoride uptake, comparison in words” value was “will not have a significant negative impact on Enamel Fluoride Uptake”.
